Holding throughout (type): biochemical, porcine
Assay [1] has as its target LD5 (Sus scrofa, UniProt P00339). Kind of assay: LDH isoenzyme assay using a multilayer element. As to conditions: web with DSS 0.54 g/m^2 in the spreading-reagent layer; control web 13. The arrangement: purified porcine LDH isoenzymes. As for the experimental part: (§1) Analytical elements containing all of the reagents necessary to quantitate specific isoenzymes were prepared according to the following format:
(§2) A polycarbonate-subbed Lexan® support was coated with a reagent layer comprising agarose (2.7 g/m^2) and NADH (0.12 g/m^2) in 0.1 M Tris buffer at pH 7.4, and a spreading-reagent layer comprising Avicel® (43 g/m^2), sodium pyruvate (0.5 g/m^2), polyvinyl pyrrolidone (PVP) (2.15 g/m^2) in isopropyl alcohol, and sodium decylsulfate (DSS) (0.54 g/m^2).
(§3) Control webs were coated as above except no sodium decylsulfate was added to the spreading-reagent layer.
(§4) Two aqueous solutions of purified porcine LDH isoenzymes, one containing LD1 and the other LD5, were prepared in 0.01 M Tris buffer, pH 7.4, at approximately 90 mU/ml. Sample aliquots (10 μl) of each solution and a buffer control (0.01 M Tris) were spotted onto the webs which were then monitored in a POS unit for decreasing fluorescence of the NADH with respect to time at 340 nm.

The target of assay [2] is LD1 (Sus scrofa, UniProt P00336). Kind of assay: LDH isoenzyme assay using a multilayer element. The arrangement: purified porcine LDH isoenzymes. Conditions: web with DSS 0.54 g/m^2 in the spreading-reagent layer; control web 11. As for the experimental part: as §1, §2, §3, §4
The target of assay [3] is T1, LD4 (Sus scrofa, UniProt P00336+P00339).
T1 construct: porcine LDH, LD1, LD2, LD3, LD4 and LD5 in the form of ammonium sulfate suspensions
Kind of assay: LDH activity assay with amphiphile, LDH isoenzymes. Conditions: 7 mM DSS; FIG. 8. As for the experimental part:
(§5) 3. Beef heart LDH (Sigma Chemical Co., Type III), rabbit muscle LDH (Sigma Chemical Co., Type V) and porcine LDH, LD1, LD2, LD3, LD4 and LD5 in the form of ammonium sulfate suspensions were used for these examples.
(§6) The assay for LDH activity in both the absence and presence of surfactant was conducted as follows. […] The resulting solution contains approximately 5 units/ml. […] To the equilibrated solution […]. of the enzyme solution was added, and the cuvette was rapidly shaken while covering the top of the cuvette with a small piece of Parafilm® and placed back into the spectrophotometer.
(§7) Amphiphile solutions were prepared by weighing out a given amount of amphiphile, e.g., 100 mg, and preparing a stock solution in 30 mM sodium phosphate buffer in 100 ml. volumetric flask. Solutions of lower amphiphile concentration were prepared by making the appropriate dilutions from the stock solution.

The target of assay [4] is T2, LD3 (Sus scrofa, UniProt P00336+P00339).
T2 construct: porcine LDH, LD1, LD2, LD3, LD4 and LD5 in the form of ammonium sulfate suspensions
Kind of assay: LDH activity assay with amphiphile, LDH isoenzymes. As to conditions: pH 7.4, read-out: LD3 activity remaining relative to buffer. On the procedure:
as §5, §6, §7

Structures are written as SMILES.

Chain of LD1 (P00336 2-334): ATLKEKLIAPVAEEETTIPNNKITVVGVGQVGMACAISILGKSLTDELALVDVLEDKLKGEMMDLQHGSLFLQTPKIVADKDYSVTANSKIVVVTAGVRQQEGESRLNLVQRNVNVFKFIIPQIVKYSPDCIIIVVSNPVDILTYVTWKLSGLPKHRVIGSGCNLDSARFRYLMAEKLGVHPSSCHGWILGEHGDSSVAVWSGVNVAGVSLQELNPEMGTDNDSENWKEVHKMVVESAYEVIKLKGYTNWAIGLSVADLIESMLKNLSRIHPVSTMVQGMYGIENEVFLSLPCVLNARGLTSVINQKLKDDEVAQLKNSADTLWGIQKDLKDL

As usually defined, the remaining activity is the signal under treatment as a percentage of the control signal. For `CCCCCCCCCCOS(=O)(=O)[O-].[Na+]` [DSS, sodium decylsulfate], the “Isoenzyme Activity LD5” value in assay [1] came out at 0. Further, the “Isoenzyme Activity LD1” value in assay [2] is on record as 15. Also, the “LD4 activity relative to buffer” value in assay [3] was “all the LD5 and LD4 activity is destroyed”. The remaining activity at 7000 µM in assay [4] is around 30%.
